Reference: US8993616B2, “(aza)indole derivative and use thereof for medical purposes” (Kissei Pharmaceutical Co., Ltd., priority 2007, dated 2015)

Target: Xanthine oxidase (from bovine milk, Sigma) (Bos taurus (Bovine), UniProt P80457)
Experiment: Xanthine oxidase inhibitory activity
Assay type: biochemical
Settings: xanthine substrate, 10 minutes at room temperature, absorbance at 290 nm
Description: (1) Preparation of Test Compounds
Test compounds were dissolved in DMSO (Wako) at 40 mM concentration and then diluted to intended concentrations with phosphate-buffered saline (PBS).
(2) Method for Measurement
Xanthine oxidase (from bovine milk, Sigma) was prepared with phosphate-buffered saline (PBS) at 0.02 units/mL, and then the solution was added to 96 well plates at 50 μL/well. In addition, test compounds diluted with PBS were added at 50 μL/well. Xanthine (Wako) at 200 μM prepared with PBS was added at 100 μL/well, and the reaction was conducted for 10 minutes at room temperature. Absorbance at 290 nm was measured using a microplate reader SpectraMax Plus 384 (Molecular device). The absorbance under a condition without xanthine is 0%, and control without test compounds is 100%. Fifty % inhibitory concentration of a test compound (IC50) was calculated (Table 60). Ex. No in the table indicates Example number.

Xanthine oxidase (from bovine milk, Sigma), sequence (P80457 whole entry): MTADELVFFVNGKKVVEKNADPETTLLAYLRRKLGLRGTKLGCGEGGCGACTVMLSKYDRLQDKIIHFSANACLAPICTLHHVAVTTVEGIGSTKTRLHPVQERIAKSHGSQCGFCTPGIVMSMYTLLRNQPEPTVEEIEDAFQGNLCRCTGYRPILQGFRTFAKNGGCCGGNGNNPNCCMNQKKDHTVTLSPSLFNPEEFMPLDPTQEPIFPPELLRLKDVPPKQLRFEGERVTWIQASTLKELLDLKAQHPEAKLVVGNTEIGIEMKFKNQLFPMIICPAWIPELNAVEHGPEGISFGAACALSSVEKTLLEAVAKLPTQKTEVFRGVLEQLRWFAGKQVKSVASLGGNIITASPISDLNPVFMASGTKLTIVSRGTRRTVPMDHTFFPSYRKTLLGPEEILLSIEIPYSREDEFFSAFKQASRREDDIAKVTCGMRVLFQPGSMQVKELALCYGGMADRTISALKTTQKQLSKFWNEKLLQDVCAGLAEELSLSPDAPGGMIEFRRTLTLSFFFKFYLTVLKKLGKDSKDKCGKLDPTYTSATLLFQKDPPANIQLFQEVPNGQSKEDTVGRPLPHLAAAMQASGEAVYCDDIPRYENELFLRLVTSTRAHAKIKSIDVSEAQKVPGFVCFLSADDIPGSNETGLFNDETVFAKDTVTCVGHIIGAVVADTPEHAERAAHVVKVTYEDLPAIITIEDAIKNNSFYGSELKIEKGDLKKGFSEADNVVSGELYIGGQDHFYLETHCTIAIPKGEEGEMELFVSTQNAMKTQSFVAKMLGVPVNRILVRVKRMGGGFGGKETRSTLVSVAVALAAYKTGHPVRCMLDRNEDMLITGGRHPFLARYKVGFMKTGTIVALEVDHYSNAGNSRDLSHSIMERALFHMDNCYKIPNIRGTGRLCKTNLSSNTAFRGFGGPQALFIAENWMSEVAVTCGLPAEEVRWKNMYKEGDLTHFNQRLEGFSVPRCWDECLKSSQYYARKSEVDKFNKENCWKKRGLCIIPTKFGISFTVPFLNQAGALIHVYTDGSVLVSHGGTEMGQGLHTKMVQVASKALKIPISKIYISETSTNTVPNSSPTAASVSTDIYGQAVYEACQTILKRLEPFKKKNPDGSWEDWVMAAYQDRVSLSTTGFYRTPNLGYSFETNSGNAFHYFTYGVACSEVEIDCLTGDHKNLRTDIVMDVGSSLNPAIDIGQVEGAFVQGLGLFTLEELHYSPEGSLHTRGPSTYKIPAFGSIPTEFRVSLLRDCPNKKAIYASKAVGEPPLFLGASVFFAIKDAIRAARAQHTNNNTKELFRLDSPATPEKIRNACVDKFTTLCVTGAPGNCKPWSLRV

`N#Cc1cn(-c2ccc(C(=O)O)c(O)c2)c2cc3c(cc12)OCO3` [Example 194] and `N#Cc1cn(-c2ccc(C(=O)O)c(O)c2)c2cc(F)c(F)cc12` [Example 3, 4-(3-Cyano-5,6-difluoroindol-1-yl)-2-hydroxybenzoic acid] are within 1.5-fold of each other in IC50: 8.3 nM for the first, 6.5 nM for the second.

First: N#Cc1cn(-c2ccc(C(=O)O)c(O)c2)c2cc(Cl)c(F)cc12 [Example 193]
Second: N#Cc1cn(-c2ccc(C(=O)O)c(O)c2)c2ccc(Cl)cc12 [Example 197]
The IC50 of the first is 2-fold lower: 4.6 nM for the first, 9 nM for the second.

`N#Cc1cn(-c2ccc(C(=O)O)c(O)c2)c2ccccc12` [Example 188] and `N#Cc1cn(-c2ccc(C(=O)O)c(O)c2)c2ccc(O)cc12` [Example 201] are within 1.5-fold of each other in IC50: 5 nM for the first, 5.5 nM for the second.

Going from `N#Cc1cn(-c2ccc(C(=O)O)cc2)c2ccc(O)cc12` [Example 152] to `CN(C)C(=O)c1ccc2c(c1)c(C#N)cn2-c1ccc(C(=O)O)cc1` [Example 34, 4-(3-Cyano-5-dimethylaminocarbonylindol-1-yl)benzoic acid], the IC50 rises from 15.8 nM to 48.3 nM (3.1-fold). The first is the more potent here.

Going from `N#Cc1cn(-c2ccc(C(=O)O)cc2)c2ccc(C(=O)NCc3ccccc3)cc12` [Example 160] to `N#Cc1cn(-c2ccc(C(=O)O)cc2)c2ccc(OCCOCc3ccccc3)cc12` [Example 175], the IC50 rises from 11.3 nM to 22.2 nM (2-fold). The first is the more potent here.

First: N#Cc1cn(-c2ccc(C(=O)O)c(O)c2)c2ccc(OCc3ccccc3)cc12 [Example 200]
Second: N#Cc1cn(-c2ccc(C(=O)O)c(O)c2)c2cc(OCc3ccccc3Cl)ccc12 [Example 230]
The IC50 of the first is 1.7-fold lower: 39.4 nM for the first, 67.1 nM for the second.

`CS(=O)(=O)NCCOc1ccc2c(C#N)cn(-c3ccc(C(=O)O)c(O)c3)c2c1` [Example 238] and `CS(=O)(=O)NCCCOc1ccc2c(C#N)cn(-c3ccc(C(=O)O)c(O)c3)c2c1` [Example 240] are within 1.5-fold of each other in IC50: 8.3 nM for the first, 9.8 nM for the second.

`N#Cc1cn(-c2ccc(C(=O)O)cc2)c2ccc(OCc3ccsc3)cc12` [Example 176] and `CS(=O)(=O)c1ccc(COc2ccc3c(c2)c(C#N)cn3-c2ccc(C(=O)O)cc2)cc1` [Example 178] are within 1.5-fold of each other in IC50: 18.3 nM for the first, 12.9 nM for the second.

First: N#Cc1cn(-c2ccc(C(=O)O)cc2)c2ccc(-c3ccc(O)c(Cl)c3)cc12 [Example 179]
Second: CN(C)c1ccc(-c2ccc3c(c2)c(C#N)cn3-c2ccc(C(=O)O)cc2)cc1 [Example 165]
The IC50 of the first is 14-fold lower: 8 nM for the first, 111 nM for the second. The first is the more potent here.

First: Cc1ccc2c(c1)c(C#N)cn2-c1ccc(C(=O)O)cn1 [Example 143]
Second: Cc1cc2c(C#N)cn(-c3ccc(C(=O)O)cn3)c2cc1F [Example 307]
The IC50 of the first is 1.9-fold higher: 24.4 nM for the first, 13 nM for the second.

Going from `CC(C)COc1ccc2c(c1)c(C#N)cn2-c1ccc(C(=O)O)c(O)c1` [Example 205] to `CC(C)Oc1ccc2c(c1)c(C#N)cn2-c1ccc(C(=O)O)c(O)c1` [Example 209], the IC50 falls from 27.6 nM to 11 nM (2.5-fold). The second is the more potent here.

`COc1ccc2c(C#N)cn(-c3ccc(C(=O)O)c(O)c3)c2c1` [Example 217] and `N#Cc1cn(-c2ccc(C(=O)O)c(O)c2)c2cc(F)ccc12` [Example 192] are within 1.5-fold of each other in IC50: 6 nM for the first, 4.3 nM for the second.

Going from `N#Cc1cn(-c2ccc(C(=O)O)c(O)c2)c2cc(OCc3cccc(Cl)c3)ccc12` [Example 231] to `CCOc1ccc2c(c1)c(C#N)cn2-c1ccc(C(=O)O)c(O)c1` [Example 214], the IC50 falls from 29.1 nM to 11 nM (2.6-fold). The second is the more potent here.

Going from `COCCOc1ccc2c(c1)c(C#N)cn2-c1ccc(C(=O)O)c(O)c1` [Example 211] to `N#Cc1cn(-c2ccc(C(=O)O)c(O)c2)c2ccc(F)cc12` [Example 191], the IC50 falls from 6.2 nM to 3.9 nM (1.6-fold).

Compared with `CC(C)(C)OC(=O)NCCCOc1ccc2c(c1)c(C#N)cn2-c1ccc(C(=O)O)cc1` [Example 180], `N#Cc1cn(-c2ccc(C(=O)O)cc2)c2ccc(OCCCO)cc12` [Example 172] is 3.6-fold lower in IC50: 29 nM for the first, 8 nM for the second. The second is the more potent here.

Compared with `N#Cc1cn(-c2ccc(C(=O)O)cc2)c2cc(-c3ccccc3)ccc12` [Example 155], `COc1cc2c(C#N)cn(-c3ccc(C(=O)O)cc3)c2cc1Cl` [Example 293] is 8-fold lower in IC50: 112 nM for the first, 14 nM for the second. The second is the more potent here.

First: Cc1ccc2c(c1)c(C#N)cn2-c1nc(C)c(C(=O)O)s1 [Example 187]
Second: N#Cc1ccc2c(C#N)cn(-c3ccc(C(=O)O)c(O)c3)c2c1 [Example 207]
The IC50 of the first is 2.2-fold higher: 16.4 nM for the first, 7.3 nM for the second. The second is the more potent here.

Going from `CC(=O)NCCCOc1ccc2c(C#N)cn(-c3ccc(C(=O)O)c(O)c3)c2c1` [Example 239] to `N#Cc1cn(-c2ccc(C(=O)O)c(O)c2)c2cc(C(F)(F)F)ccc12` [Example 195], the IC50 rises from 6.5 nM to 14.5 nM (2.2-fold).

Target: human URAT1 (Homo sapiens (Human), UniProt Q96S37)
Sequence (Q96S37 whole entry): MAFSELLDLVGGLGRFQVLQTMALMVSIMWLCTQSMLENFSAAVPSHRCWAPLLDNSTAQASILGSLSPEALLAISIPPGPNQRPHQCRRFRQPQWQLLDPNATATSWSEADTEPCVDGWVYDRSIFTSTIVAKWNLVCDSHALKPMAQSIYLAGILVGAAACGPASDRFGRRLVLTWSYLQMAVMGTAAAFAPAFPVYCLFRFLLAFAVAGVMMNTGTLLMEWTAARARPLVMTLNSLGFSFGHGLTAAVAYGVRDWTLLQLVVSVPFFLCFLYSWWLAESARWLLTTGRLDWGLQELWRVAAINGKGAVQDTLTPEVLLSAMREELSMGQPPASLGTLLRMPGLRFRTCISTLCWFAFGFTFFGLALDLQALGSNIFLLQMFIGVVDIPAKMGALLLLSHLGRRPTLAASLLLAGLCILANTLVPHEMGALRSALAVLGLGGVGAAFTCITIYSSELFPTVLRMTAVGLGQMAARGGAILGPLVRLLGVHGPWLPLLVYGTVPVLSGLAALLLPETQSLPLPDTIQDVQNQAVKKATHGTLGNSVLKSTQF
Experiment: Inhibitory activity of uric acid transport with human URAT1 expressing cells
Assay type: cell-based
Settings: COS-7; 10 μM test compound; 14C-labeled uric acid uptake in COS7 cells transiently expressing human URAT1, 5 minutes
Description: (1) Preparation of Transiently Human URAT1 Expressing Cells
Full length human URAT1 cDNA (NCBI Accession No. NM_144585) was subcloned into expression vector, pcDNA3.1 (Invitrogen). Human URAT1 expression vector was transfected into COS7 cells (RIKEN CELL BANK RCB0539) using Lipofectamine 2000. COS7 cells were cultured in collagen-coated 24 well plates (Asahi Techno Glass) at 2×10^5/well in D-MEM culture medium (Invitrogen) containing 10% fetal bovine serum (Sanko Junyaku) for 2 hours at 37° C. under the condition of 5% CO2. For 1 well, 2 μL of Lipofectamine 2000 was diluted in 50 μL of OPTI-MEM (Invitrogen) and allowed to stand at room temperature for 7 minutes (hereinafter referred to as Lipo2000-OPTI). For 1 well, 0.8 μg of human URAT1 expression vector was diluted in 50 μL of OPTI-MEM (Invitrogen) and combined gently with Lipo2000-OPTI. After standing at room temperature for 25 minutes, the mixture was added to COS7 cells at 100 μL/well. […]
All tests were performed on hot-plate at 37° C. […] After mixing, the radioactivity was counted in a liquid scintillation counter (PerkinElmer). The radioactivity in COST cells not transfected with URAT1 expression vector was also counted under the same condition as control. […]
• A: Radioactivity in control • B: Radioactivity in the case of addition of test compounds • C: Radioactivity in COST cells not transfected with URAT1 expression vector

First: N#Cc1cn(-c2ccc(C(=O)O)c(O)c2)c2cc3c(cc12)OCO3 [Example 194]
Second: N#Cc1cn(-c2ccc(C(=O)O)c(O)c2)c2cc(Cl)c(F)cc12 [Example 193]
The inhibition at 10 µM of the first is higher: 64% for the first, 47% for the second.

Test system: not listed separately
Experiment: Serum hypouricemic effect
Assay type: in vivo
Settings: 3 mg/kg orally, overnight fasted male CD (SD) IGS rats, 2 hours after administration
Description: (1) Method for Measurement
Test compounds at 3 mg/kg suspended in 0.5% methylcellulose solution were administered orally to overnight fasted male CD (SD) IGS rats (5-week-old, Charls River Japan). At 2 hours after administration, blood was collected under ether anesthesia from abdominal aorta, and serum was separated according to general method. Serum uric acid values were determined by use of uric acid measurement kit (Uric acid C-Test Wako: Wako), and percent decrease in uric acid was calculated according to the formula described below.
Percent decrease in uric acid (%)=(Serum uric acid values in control animals—Serum uric acid values in animals administered test compounds)×100/Serum uric acid values in control animals

With `N#Cc1cn(-c2ccc(C(=O)O)c(O)c2)c2cc(F)c(F)cc12` [Example 3, 4-(3-Cyano-5,6-difluoroindol-1-yl)-2-hydroxybenzoic acid] the “Percent decrease in uric acid (hypouricemic effect)” value (“Percent decrease in uric acid” for short) was “over 60%”.
In the case of `N#Cc1cn(-c2ccc(C(=O)O)c(O)c2)c2ccccc12` [Example 188], the “Percent decrease in uric acid” value is reported as “over 60%”.
With `N#Cc1cn(-c2ccc(C(=O)O)c(O)c2)c2ccc(F)cc12` [Example 191] the “Percent decrease in uric acid” value was “over 60%”.
With `N#Cc1cn(-c2ccc(C(=O)O)c(O)c2)c2cc(F)ccc12` [Example 192] the “Percent decrease in uric acid” value was “over 60%”.
